The values that follow come from paper PMC7782499, “Progerinin, an optimized progerin-lamin A binding inhibitor, ameliorates premature senescence phenotypes of Hutchinson-Gilford progeria syndrome” (Communications Biology, 2021).

The test system of assay [1] is Lmna G609G/+ mouse. The assay is described as follows: Radiological examination (kyphosis index, incisors). Particulars: Lmna G609G/+ mice. In kind it is in vivo. How it is done:
The radiographic study was performed in anaesthetized living mice using a human radiographic system (College of Veterinary Medicine, Gyeongsang National University, Korea). A single radiograph of right lateral view of the whole body was obtained. Age-matched (at 41 weeks old) Lmna^+/+ mice, untreated Lamn^G609G/+ mice, and progerinin-treated Lmna^G609G/+ mice were radiographed. The images were recorded in DICOM format and then transferred to a personal computer. KI[28],[30] and abnormalities of the incisors were evaluated. Data processing and analysis were performed using a RadiAnt DICOM system in Institute of Animal Medicine, College of Veterinary Medicine, Gyeongsang National University (Jinju, Korea). […]
LmnaG609G transgenic mice at 41 weeks of age. Abundant adipose tissues are present in abdomens of
Lmna+/+ and progerin- treated LmnaG609G/+ mice compared to untreated LmnaG609G/+ mice. Kyphosis Index
(KI) index was accessed after 8-week treatment.
untreated LmnaG609G/+, and D011- treated LmnaG609G/+ mice at 41 weeks of age (unpaired t-test), *p < 0.05.
Severity of kyphosis depends on genotype and treatment of SLC-D011. H. Gross morphology of age-

Assay [2] has as its system Lmna G609G/+ mouse. The assay is described as follows: Heart rate (electrocardiographic analysis). The format is in vivo. Particulars: LMNA G609G/+ mice, SLC-D011 for 6 weeks. An excerpt:
Fig. 4 Oral administration of SLC-D011 suppresses premature aging features. A Gross morphology of SLC-D011-treated (D011) mice at 8 weeks old. Body size of treated mouse was apparently larger than that of the untreated control (Con) mouse. B Oral administration of SLC-D011 increases body weights of Lmna^G609G/G609G mice. Compared with untreated control group, body weight of treated mouse was increased by ~35%, *p < 0.05. C Oral administration of SLC-D011 extends the life span of Lmna^G609G/G609G mouse. SLC-D011 in monoolein-based solution was treated by oral gavage (50 mg/kg, daily) from 5 weeks old. […] E Grip test of Lmna^G609G/+ mice at 41-week-old was performed after administration of SLC-D011 for 6 weeks. The test was repeated 10 times for each mouse (n > 4), **p < 0.001. Data are presented as mean ± SD. […] H Anti-aging effects of single treatment of SLC-D011 or lonafarnib were measured in HGPS patients-derived cells (AG11513, AG03199, AG11498, and AG03198, Coriell Cell Repositories). […] No unit is printed with them; the x axis reads Age (weeks). / Panel C: Ave=16.8 / Max=18 are printed beside the dashed curve of the control (Con). […]
For analysis of heart rate, mice were anesthetized with 2.5% isoflurane and monitored using LOGIQ E9 (GE Healthcare). […] Each estimate given corresponded to total reads measured ten times, excluding the minimum and the maximum from each group of animals.

Structures are written as SMILES. Where “and” joins values, the source holds several entries; their conditions need not be identical. Equal entries are not always repeated.

On to `CC1(C)Oc2cc3oc(=O)ccc3cc2C[C@@H]1OC/C=C/c1ccccc1` [SLC-D011], for which, in the assay with Lmna G609G/+ mouse [1] (41 weeks of age), the Abnormalities of incisors entry was “ameliorated these abnormalities” and the “Kyphosis index (KI)” value is “recovered”. Also, in the assay with Lmna G609G/+ mouse [1] (Ave), the Kyphosis index came to 4.2583. The Kyphosis index with Lmna G609G/+ mouse [1] (individual mouse) is 3.759 and 3.649 and 5.045 and 4.58. Moreover, the Heart rate in the assay with Lmna G609G/+ mouse [2] is 462 bmp and 447 bmp and 432 bmp and 454 bmp.
